Measurements taken from patent US9999222B2, “Herbicidal combination comprising azines” (BASF SE, priority 2014, dated 2018).
Where two headings read alike, the source gives them in different places.

Assays:
Experiment in all cases: Greenhouse test, pre-emergence treatment
ABUTH = format: in vivo, Abutilon theophrasti; conditions: Abutilon theophrasti, 480 h
Source text: (§1) The culture containers used were plastic flowerpots containing loamy sand with approximately 3.0% of humus as the substrate. The seeds of the test plants were sown separately for each species.
(§2) For the pre-emergence treatment, the active ingredients, which had been suspended or emulsified in water, were applied directly after sowing by means of finely distributing nozzles. The containers were irrigated gently to promote germination and growth and subsequently covered with transparent plastic hoods until the plants had rooted. This cover caused uniform germination of the test plants, unless this had been impaired by the active ingredients.
(§3) Depending on the species, the plants were kept at 10-25° C. or 20-35° C., respectively.
(§4) The test period extended over 2 to 4 weeks. During this time, the plants were tended, and their response to the individual treatments was evaluated.
(§5) Evaluation was carried out using a scale from 0 to 100. 100 means no emergence of the plants, or complete destruction of at least the aerial moieties, and 0 means no damage, or normal course of growth. A moderate herbicidal activity is given at values of at least 60, a good herbicidal activity is given at values of at least 70, and a very good herbicidal activity is given at values of at least 85.
(§6) The respective stated components a and b, and if appropriate, c were formulated as a 10% by weight strength emulsion concentrate and, with addition of the amount of solvent system, introduced into the spray liquor used for applying the active compound.
(§7) In the examples, the solvent used was water.
(§8) In the examples below, using the method of S. R. Colby (1967) “Calculating synergistic and antagonistic responses of herbicide combinations”, Weeds 15, p. 22ff., the value E, which is expected if the activity of the individual active compounds is only additive, was calculated. E=X+Y−(X·Y/100) where • X=percent activity using active compound a at an application rate A; • Y=percent activity using active compound b at an application rate B; • E=expected activity (in %) by a+b at application rates A+B.
(§9) If the value found experimentally is higher than the value E calculated according to Colby, a synergistic effect is present.

POLCO = format: in vivo, Polygonum convolvulus; conditions: Fallopia convolvulus, pre-emergence, 480 h; for inhibition at 50 g/ha: use rate 50 g ai/ha
Source text: as §1, §2, §3, §4, §5, §6, §7, §8, §9

ANTAR = format: in vivo; conditions: Anthemis arvensis, 480 h, 20 DAT, read-out: observed % activity
Source text: as §1, §2, §3, §4, §5, §6, §7, §8, §9

COMBE = format: in vivo, Commelina benghalensis; conditions: Commelina benghalensis, pre-emergence, 480 h
Source text: as §1, §2, §3, §4, §5, §6, §7, §8, §9

EPHHL = format: in vivo, Euphorbia heterophylla; conditions: Euphorbia heterophylla, pre-emergence, 480 h
Source text: as §1, §2, §3, §4, §5, §6, §7, §8, §9

GALAP = format: in vivo, Galium aparine; conditions: Galium aparine, pre-emergence, 480 h
Source text: as §1, §2, §3, §4, §5, §6, §7, §8, §9

GERPU = format: in vivo, Geranium pusillum; conditions: Geranium pusillum, pre-emergence, 480 h
Source text: as §1, §2, §3, §4, §5, §6, §7, §8, §9

KCHSC = format: in vivo, Kochia scoparia; conditions: Bassia scoparia, pre-emergence, 480 h
Source text: as §1, §2, §3, §4, §5, §6, §7, §8, §9

IPOHE = format: in vivo, Ipomoea hederacea; conditions: Ipomoea hederacea, 480 h
Source text: as §1, §2, §3, §4, §5, §6, §7, §8, §9

SIDRH = format: in vivo, Sida rhombifolia; conditions: Sida rhombifolia, pre-emergence, 480 h
Source text: as §1, §2, §3, §4, §5, §6, §7, §8, §9

CENCY = format: in vivo; conditions: 480 h, individual, read-out: observed % activity 20 DAT
ALOMY = format: in vivo, Alopecurus myosuroides; conditions: Alopecurus myosuroides, pre-emergence, 480 h, pre-emergence, read-out: observed % activity 20 DAT; for inhibition at 50 g/ha: use rate 50 g ai/ha; for inhibition at 100 g/ha: use rate 100 g ai/ha
Source text: as §1, §2, §3, §4, §5, §6, §7, §8, §9

APESV = format: in vivo, Apera spica-venti; conditions: Apera spica-venti, 480 h, read-out: observed % activity 20 DAT
Source text: as §1, §2, §3, §4, §5, §6, §7, §8, §9

ECHCG = format: in vivo, Echinocloa crus-galli; conditions: Echinochloa crus-galli, 480 h, ECHCG, use rate 50 g ai/ha, 20 DAT, read-out: observed % activity 20 DAT
Source text: as §1, §2, §3, §4, §5, §6, §7, §8, §9

LOLMU = format: in vivo, Lolium multiflorum; conditions: Lolium multiflorum, pre-emergence, 480 h, pre-emergence, read-out: observed % activity 20 DAT
Source text: as §1, §2, §3, §4, §5, §6, §7, §8, §9

[1] = 250 g ai/ha, 20 DAT, read-out: observed % activity
[2] = 500 g ai/ha, 20 DAT, read-out: observed % activity
[3] = 20 g ai/ha, 20 DAT, read-out: observed % activity
[4] = 40 g ai/ha, 20 DAT, read-out: observed % activity
[5] = read-out: observed % activity 20 DAT
[6] = use rate 100 g ai/ha, read-out: observed % activity 20 DAT

Compound: Cc1ccc(NC(=O)N(C)C)cc1Cl [chlorotoluron]
- inhibition at 250 g/ha (ABUTH; [1]): 0%
- inhibition at 500 g/ha (ABUTH; [2]): 0%
- inhibition at 125 g/ha (ABUTH; ABUTH, individual, use rate 125 g ai/ha, read-out: observed % activity 20 DAT): 0%
- inhibition at 250 g/ha (ABUTH; ABUTH, individual, use rate 250 g ai/ha, read-out: observed % activity 20 DAT): 0%
- inhibition at 250 g/ha (POLCO; [1]): 0%
- inhibition at 500 g/ha (POLCO; [2]): 20%
- inhibition at 250 g/ha (POLCO; POLCO, individual, use rate 250 g ai/ha, read-out: observed % activity 20 DAT): 0%
- inhibition at 250 g/ha (ANTAR; 250 g ai/ha): 45%
- inhibition at 500 g/ha (ANTAR; 500 g ai/ha): 45%
- inhibition at 250 g/ha (COMBE; [1]): 20%
- inhibition at 125 g/ha (COMBE; COMBE, individual, use rate 125 g ai/ha, read-out: observed % activity 20 DAT): 0%
- inhibition at 250 g/ha (COMBE; COMBE, individual, use rate 250 g ai/ha, read-out: observed % activity 20 DAT): 0%
- inhibition at 250 g/ha (EPHHL; [1]): 0%
- inhibition at 250 g/ha (EPHHL; EPHHL, individual, use rate 250 g ai/ha, read-out: observed % activity 20 DAT): 15%
- inhibition at 500 g/ha (GALAP; [2]): 50%
- inhibition at 125 g/ha (GALAP; GALAP, individual, use rate 125 g ai/ha, read-out: observed % activity 20 DAT): 25%
- inhibition at 250 g/ha (GALAP; GALAP, individual, use rate 250 g ai/ha, read-out: observed % activity 20 DAT): 30%
- inhibition at 250 g/ha (GERPU; [1]): 25%
- inhibition at 500 g/ha (GERPU; [2]): 20%
- inhibition at 125 g/ha (GERPU; GERPU, individual, use rate 125 g ai/ha, read-out: observed % activity 20 DAT): 25%
- inhibition at 250 g/ha (GERPU; GERPU, individual, use rate 250 g ai/ha, read-out: observed % activity 20 DAT): 25%
- inhibition at 250 g/ha (KCHSC; [1]): 20%
- inhibition at 500 g/ha (KCHSC; [2]): 50%
- inhibition at 125 g/ha (KCHSC; KCHSC, individual, use rate 125 g ai/ha, read-out: observed % activity 20 DAT): 15%
- inhibition at 500 g/ha (IPOHE; [2]): 0%
- inhibition at 250 g/ha (IPOHE; IPOHE, individual, use rate 250 g ai/ha, read-out: observed % activity 20 DAT): 0%
- inhibition at 250 g/ha (SIDRH; [1]): 0%
- inhibition at 500 g/ha (SIDRH; [2]): 0%
- inhibition at 125 g/ha (CENCY; use rate 125 g ai/ha): 20%
- inhibition at 250 g/ha (CENCY; use rate 250 g ai/ha): 0%

Compound: COc1c(Cl)ccc(Cl)c1C(=O)O [DICAMBA, dicamba]
- inhibition at 20 g/ha (ABUTH; [3]): 60%
- inhibition at 40 g/ha (ABUTH; [4]): 80%
- inhibition at 35 g/ha (ABUTH; ABUTH, individual, use rate 35 g ai/ha, read-out: observed % activity 20 DAT): 0%
- inhibition at 70 g/ha (ABUTH; ABUTH, individual, use rate 70 g ai/ha, read-out: observed % activity 20 DAT): 20%
- inhibition at 50 g/ha (ALOMY; ALOMY, 20 DAT): 20%
- inhibition at 100 g/ha (ALOMY; ALOMY, 20 DAT): 40%
- inhibition at 50 g/ha (ALOMY): 20%
- inhibition at 100 g/ha (ALOMY): 40%
- inhibition at 100 g/ha (APESV): 35%
- inhibition at 50 g/ha (ECHCG): 0%
- inhibition at 20 g/ha (POLCO; [3]): 35%
- inhibition at 40 g/ha (POLCO; [4]): 90%
- inhibition at 50 g/ha (POLCO; POLCO, 20 DAT, read-out: observed % activity 20 DAT): 40%
- inhibition at 50 g/ha (POLCO; [5]): 40%
- inhibition at 100 g/ha (POLCO; [6]): 60%
- inhibition at 20 g/ha (ANTAR; 20 g ai/ha): 30%
- inhibition at 40 g/ha (ANTAR; 40 g ai/ha): 30%
- inhibition at 20 g/ha (COMBE; [3]): 45%
- inhibition at 40 g/ha (COMBE; [4]): 65%
- inhibition at 70 g/ha (COMBE; COMBE, individual, use rate 70 g ai/ha, read-out: observed % activity 20 DAT): 50%
- inhibition at 35 g/ha (COMBE; [5]): 15%
- inhibition at 35 g/ha (EPHHL; [5]): 20%
- inhibition at 20 g/ha (GERPU; [3]): 20%
- inhibition at 40 g/ha (GERPU; [4]): 85%
- inhibition at 35 g/ha (GERPU; GERPU, individual, use rate 35 g ai/ha, read-out: observed % activity 20 DAT): 40%
- inhibition at 100 g/ha (KCHSC; [6]): 90%
- inhibition at 35 g/ha (KCHSC; [5]): 75%
- inhibition at 50 g/ha (KCHSC; [5]): 85%
- inhibition at 70 g/ha (KCHSC; [5]): 75%
- inhibition at 50 g/ha (LOLMU; LOLMU, use rate 50 g ai/ha, 20 DAT): 40%
- inhibition at 100 g/ha (LOLMU): 45%
- inhibition at 35 g/ha (IPOHE; IPOHE, individual, use rate 35 g ai/ha, read-out: observed % activity 20 DAT): 40%
- inhibition at 70 g/ha (IPOHE; IPOHE, individual, use rate 70 g ai/ha, read-out: observed % activity 20 DAT): 40%
- inhibition at 20 g/ha (SIDRH; [3]): 45%
- inhibition at 40 g/ha (SIDRH; [4]): 80%
- inhibition at 35 g/ha (SIDRH; SIDRH, individual, use rate 35 g ai/ha, read-out: observed % activity 20 DAT): 20%
- inhibition at 70 g/ha (SIDRH; [5]): 15%
- inhibition at 35 g/ha (CENCY; use rate 35 g ai/ha): 0%
- inhibition at 70 g/ha (CENCY; use rate 70 g ai/ha): 30%
